Test results taken from BigSolDB 2.1.

CCc1ccc2c(c1)C(=O)c1ccccc1C2=O
solubility (mole fraction)
Conditions | 304.15 K | 309.15 K | 314.15 K | 319.15 K | 324.15 K | 329.15 K | 334.15 K | 339.15 K | 344.15 K
in 2-methyl-cyclohexyl acetate | 0.0752 | 0.0907 | 0.104 | 0.127 | 0.145 | 0.171 | 0.199 | 0.232 | 0.268
in 2-phenylethanol | 0.107 | 0.127 | 0.15 | 0.176 | 0.21 | 0.248 | 0.288 | 0.334 | 0.385
in DMAc | 0.0943 | 0.113 | 0.131 | 0.156 | 0.184 | 0.214 | 0.248 | 0.287 | 0.336
in DMF | 0.107 | 0.126 | 0.153 | 0.176 | 0.21 | 0.245 | 0.283 | 0.335 | 0.388
in acetophenone | 0.138 | 0.163 | 0.185 | 0.21 | 0.238 | 0.274 | 0.315 | 0.356 | 0.397
in diglyme | 0.165 | 0.191 | 0.216 | 0.244 | 0.275 | 0.314 | 0.357 | 0.401 | 0.444
in diisobutyl methanol | 0.0441 | 0.0536 | 0.0651 | 0.0787 | 0.0973 | 0.116 | 0.139 | 0.163 | 0.199
in dioctyl adipate | 0.0657 | 0.0773 | 0.0899 | 0.107 | 0.129 | 0.152 | 0.18 | 0.209 | 0.242
in mesitylene | 0.139 | 0.159 | 0.184 | 0.209 | 0.234 | 0.264 | 0.296 | 0.329 | 0.371
in styrene | 0.0944 | 0.112 | 0.132 | 0.153 | 0.182 | 0.212 | 0.248 | 0.285 | 0.335
in tetrabutyl urea | 0.0531 | 0.0644 | 0.0785 | 0.0947 | 0.116 | 0.139 | 0.17 | 0.197 | 0.24
in trioctyl phosphate | 0.0569 | 0.0678 | 0.0792 | 0.0959 | 0.114 | 0.135 | 0.155 | 0.182 | 0.22
